We go through four molecules from patent US10618912B2, “Diaryl macrocycles as modulators of protein kinases” (Turning Point Therapeutics, Inc., priority 2014, dated 2020).

The subject of one assay is KM12 cells. The experiment in a line: Caspase activity assay. Format: cell-based. The note with it: 72 hours, caspase3 glo / PARP immunoblot. The protocol: KM12 cells were maintained in DMEM medium supplemented with 10% fetal bovine serum and antibiotics. 500,000 cells were seeded in 12-well plate and various concentration of compounds were introduced for 72 hours For staurosporine treatment, 500 nM of STS were added at time of 60 hours and incubation of 12 hours as a positive control. All the cells were collected and washed with 1×PBS twice and then lysed in a lysis buffer (20 mM HEPES, 150 mM NaCl, 10 mM KCl, 5 mM EDTA, 1% NP40) supplemented with Halt protease and phosphatase inhibitors (Thermo Scientific). For caspase assays, around 20 μL (20 μg) of cell lysate were incubated with 20 μL, of caspase3 glo reagent (Promega), measuring enzyme activity by the release of luminescence after 20 min incubation at 37° C. For western blotting, cell lysates were boiled and analyzed by SDS-PAGE/immunoblotting using PARP, or actin antibodies.
(In western blotting, separated proteins are transferred to a membrane and probed.)

The test system of assay [1] is Ba/F3-EML4-ALK wild type cell line. The experiment in a line: EML4-ALK Ba/F3 cell proliferation assay. The note with it: 48 hours incubation, read-out: EML4-ALK Ba/F3 cell proli. IC50. It is filed as cell-based. The protocol: The EML4-ALK wild-type gene (variant 1) was synthesized at GenScript and cloned into pCDH-CMV-MCS-EF1-Puro plasmid (System Biosciences, Inc). Ba/F3-EML4-ALK wild type cell line was generated by infecting Ba/F3 cells with lentivirus containing EML4-ALK wide-type. Stable cell lines were selected by puromycin treatment, followed by IL-3 withdrawal. 5000 cells were seeded in 384 well white plate overnight before compound treatment. Cell proliferation was measured using CellTiter-Glo luciferase-based ATP detection assay (Promega) following the manufactures's protocol after 48 hours of various concentration of compound incubation. IC50 determinations were performed using GraphPad Prism software (GraphPad, Inc., San Diego, Calif.).

As for `CN1Cc2cc(F)ccc2OCCNC(=O)c2cnn3ccc1nc23` [Example 20, 11-fluoro-14-methyl-6,7,13,14-tetrahydro-1,15-ethenopyrazolo[4,3-f][1,4,8,10]benzoxatriazacyclo-tridecin-4(5H)-one], the “apoptosis of KM 12 cells” value in the assay with KM12 cells was “induced apoptosis”.
Consider `C[C@@H]1CNC(=O)c2cnn3ccc(nc23)N[C@H](C)c2cc(F)ccc2O1` [Example 92, (7R,13R)-11-fluoro-7,13-dimethyl-6,7,13,14-tetrahydro-1,15-ethenopyrazolo[4,3-f][1,4,8,10]benzoxatriazacyclotridecin-4(5H)-one], for which the IC50 in assay [1] is 0.0786 µM.
The same measure, in the same setting: as for `C[C@H]1CNC(=O)c2cnn3ccc(nc23)N[C@H](C)c2cc(F)ccc2O1` [Example 93, (7S,13R)-11-fluoro-7,13-dimethyl-6,7,13,14-tetrahydro-1,15-ethenopyrazolo[4,3-f][1,4,8,10]benzoxatriazacyclotridecin-4(5H)-one], the figure is 0.0211 µM; as for `C[C@H]1Nc2ccn3ncc(c3n2)C(=O)NCCOc2ccc(F)cc21` [Example 51-1, (13R)-11-fluoro-13-methyl-6,7,13,14-tetrahydro-1,15-ethenopyrazolo[4,3-f][1,4,8,10]benzoxatriazacyclotridecin-4(5H)-one], 0.248 µM.
